Data: US20250230193A1, “CYCLIC COMPOUND HAVING SELECTIVE KRAS INHIBITORY EFFECT ON HRAS AND NRAS” (CHUGAI SEIYAKU KABUSHIKI KAISHA, priority 2022, published 2025)

How the values were obtained:
[1] = target: GDP-bound NRAS wild-type protein (Homo sapiens, UniProt P01111); assay: Binding to NRAS by surface plasmon resonance (SPR), Single Cycle Kinetics; conditions: KD ratio NRAS/KRAS, SPR
[2] = target: GDP-bound HRAS wild-type protein (Homo sapiens, UniProt P01112); assay: Binding to HRAS by surface plasmon resonance (SPR), Single Cycle Kinetics; conditions: KD ratio HRAS/KRAS, SPR
Chain of GDP-bound HRAS wild-type protein (P01112 whole entry): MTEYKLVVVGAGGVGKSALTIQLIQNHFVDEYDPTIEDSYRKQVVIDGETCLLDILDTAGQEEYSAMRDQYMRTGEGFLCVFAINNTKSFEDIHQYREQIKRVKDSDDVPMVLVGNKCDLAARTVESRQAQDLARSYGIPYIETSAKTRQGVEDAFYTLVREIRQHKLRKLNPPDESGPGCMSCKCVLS

Chain of GDP-bound NRAS wild-type protein (P01111 whole entry): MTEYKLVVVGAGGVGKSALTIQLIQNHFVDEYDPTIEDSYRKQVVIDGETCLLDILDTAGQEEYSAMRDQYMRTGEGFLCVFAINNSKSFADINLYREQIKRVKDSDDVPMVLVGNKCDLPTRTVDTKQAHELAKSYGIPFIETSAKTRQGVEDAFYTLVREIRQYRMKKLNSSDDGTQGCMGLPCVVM

Row | Compound | NRAS/KRAS (ratio of KD value with respect to GDP-bound NRAS wild-type protein to KD value with respect to KRAS) [1] | HRAS/KRAS (ratio of KD value with respect to GDP-bound HRAS wild-type protein to KD value with respect to KRAS) [2]
1 | CCCN1C(=O)[C@H](C2CCCC2)N(C)C(=O)C2(CCC2)NC(=O)[C@@H]2C[C@@H](OCC)CN2C(=O)[C@H](CCc2cc(F)c(C(F)(F)F)c(F)c2)NC(=O)CN(C)C(=O)[C@H](Cc2ccc(C(F)(F)F)cc2)N2CCCCC[C@@H](C2=O)N(C)C(=O)CN(C)C(=O)[C@H]([C@@H](C)CC)NC(=O)[C@H](CC(C)C)N(C)C(=O)C[C@H]1C(=O)N1CCOCC1 [PP0639] | B (a compound having 3 or more and less than 10 is denoted as B) | B (a compound having 3 or more and less than 10 is denoted as B)
2 | CCO[C@@H]1C[C@H]2C(=O)NC3(CCC3)C(=O)N(C)[C@@H](C3CCCC3)C(=O)N(CCC3CCC3)[C@H](C(=O)N3CCOCC3)CC(=O)N(C)[C@@H](CC(C)C)C(=O)N[C@@H]([C@@H](C)CC)C(=O)N(C)CC(=O)N(C)[C@H]3CCCCCN(C3=O)[C@@H](Cc3ccc(C(F)(F)F)cc3)C(=O)N(C)CC(=O)N[C@@H](CCc3cc(F)c(C(F)(F)F)c(F)c3)C(=O)N2C1 [PP0640] | B (a compound having 3 or more and less than 10 is denoted as B) | B (a compound having 3 or more and less than 10 is denoted as B)
3 | CCO[C@@H]1C[C@H]2C(=O)NC3(CCC3)C(=O)N(C)[C@@H](C3CCCC3)C(=O)N(CCC3CCCC3)[C@H](C(=O)N3CCOCC3)CC(=O)N(C)[C@@H](CC(C)C)C(=O)N[C@@H]([C@@H](C)CC)C(=O)N(C)CC(=O)N(C)[C@H]3CCCCCN(C3=O)[C@@H](Cc3ccc(C(F)(F)F)cc3)C(=O)N(C)CC(=O)N[C@@H](CCc3cc(F)c(C(F)(F)F)c(F)c3)C(=O)N2C1 [PP0641] | A (a compound having 10 or more and less than 20 is denoted as A) | A (a compound having 10 or more and less than 20 is denoted as A)
4 | CCO[C@@H]1C[C@H]2C(=O)NC3(CCC3)C(=O)N(C)[C@@H](C3CCCC3)C(=O)N(CCc3ccccc3)[C@H](C(=O)N3CCOCC3)CC(=O)N(C)[C@@H](CC(C)C)C(=O)N[C@@H]([C@@H](C)CC)C(=O)N(C)CC(=O)N(C)[C@H]3CCCCCN(C3=O)[C@@H](Cc3ccc(C(F)(F)F)cc3)C(=O)N(C)CC(=O)N[C@@H](CCc3cc(F)c(C(F)(F)F)c(F)c3)C(=O)N2C1 [PP0642] | B (a compound having 3 or more and less than 10 is denoted as B) | B (a compound having 3 or more and less than 10 is denoted as B)
5 | CCO[C@@H]1C[C@H]2C(=O)NC3(CCC3)C(=O)N(C)[C@@H](C3CCCC3)C(=O)N(CC)[C@H](C(=O)N(C)C)CC(=O)N(C)[C@@H](CC)C(=O)N[C@@H]([C@@H](C)CC)C(=O)N(C)CC(=O)N(C)[C@H]3CCCCN(C3=O)[C@@H](Cc3ccc(C(F)(F)F)cc3)C(=O)N(C)CC(=O)N[C@@H](CCc3cc(F)c(C(F)(F)F)c(F)c3)C(=O)N2C1 [PP0643] | C (A compound having a KD ratio of 0.1 or more and less than 3 is denoted as C) | B (a compound having 3 or more and less than 10 is denoted as B)
6 | CCCN1C(=O)[C@H](C2CCCC2)N(C)C(=O)C2(CCC2)NC(=O)[C@@H]2C[C@@H](OCC)CN2C(=O)[C@H](CCc2cc(F)c(C(F)(F)F)c(F)c2)NC(=O)CN(C)C(=O)[C@H](Cc2ccc(C(F)(F)F)cc2)N2CCCC[C@@H](C2=O)N(C)C(=O)CN(C)C(=O)[C@H]([C@@H](C)CC)NC(=O)[C@H](CC)N(C)C(=O)C[C@H]1C(=O)N(C)C [PP0644] | C (A compound having a KD ratio of 0.1 or more and less than 3 is denoted as C) | B (a compound having 3 or more and less than 10 is denoted as B)
